Test results reported in patent publication US11014911B2, “CDK2 inhibitors” (Pfizer Inc., priority 2019, dated 2021).

Molecular target: CDK2/Cyclin E1 full length (Homo sapiens (Human), UniProt P24941)
Experiment: CDK2/Cyclin E1 full length mobility shift assay
Format: biochemical

| Ki [nM] | Structure (SMILES) |
| --- | --- |
| 2.06 | CCNC(=O)O[C@@H]1CC[C@H](c2cc(NC(=O)Cc3cnc(C)s3)n[nH]2)C1 [Example 229, (1R,3S)-3-(3-{[(2-methyl-1,3-thiazol-5-yl)acetyl]amino}-1H-pyrazol-5-yl)cyclopentyl ethylcarbamate] |
| 1.44 | CCCNC(=O)O[C@@H]1CC[C@H](c2cc(NC(=O)Cc3cccc4ncsc34)n[nH]2)C1 [Example 196, (1R,3S)-3-{3-[(1,3-benzothiazol-7-ylacetyl)amino]-1H-pyrazol-5-yl}cyclopentyl propylcarbamate] |
| 0.69 | CC(C)(C)NC(=O)O[C@@H]1CC[C@H](c2cc(NC(=O)Cc3ccc(Cl)cn3)n[nH]2)C1 [Example 310, (1R,3S)-3-(3-{[(5-chloropyridin-2-yl)acetyl]amino}-1H-pyrazol-5-yl)cyclopentyl tert-butylcarbamate] |
| 3.01 | C[C@H]1[C@H](C#N)CN1C(=O)O[C@@H]1CC[C@H](c2cc(NC(=O)Cc3ccccc3)n[nH]2)C1 (single isomer, unassigned) [Example 162] |
| 0.63 | C[C@H](NC(=O)O[C@@H]1CC[C@H](c2cc(NC(=O)Cc3cnn(C)c3)n[nH]2)C1)[C@@H](C)F [Example 380, (1R,3S)-3-(3-{[(1-methyl-1H-pyrazol-4-yl)acetyl]amino}-1H-pyrazol-5-yl)cyclopentyl [(2S,3R)-3-fluorobutan-2-yl]carbamate] |
| 4.26 | Cc1ccc(C(=O)Nc2cc([C@H]3CC[C@@H](OC(=O)NC(C)CC(F)(F)F)C3)[nH]n2)cn1 (single isomer, unassigned) [Example 69] |
| 4.81 | COc1cc(CC(=O)Nc2cc([C@H]3CC[C@@H](OC(=O)N4[C@H](C)C[C@H]4C)C3)[nH]n2)ccn1 [Example 609, (1R,3S)-3-(3-{[(2-methoxypyridin-4-yl)acetyl]amino}-1H-pyrazol-5-yl)cyclopentyl (2R,4R)-2,4-dimethylazetidine-1-carboxylate] |
| 2.05 | Cc1cnc(CC(=O)Nc2cc([C@H]3CC[C@@H](OC(=O)NC(C)CC(F)F)C3)[nH]n2)o1 (single isomer, unassigned) [Example 96] |
| 1.57 | Cc1cnc(CC(=O)Nc2cc([C@H]3CC[C@@H](OC(=O)NC(C)C)C3)[nH]n2)o1 [Example 271, (1R,3S)-3-(3-{[(5-methyl-1,3-oxazol-2-yl)acetyl]amino}-1H-pyrazol-5-yl)cyclopentyl propan-2-ylcarbamate] |
| 1.95 | O=C(Cc1ccno1)Nc1cc([C@H]2CC[C@@H](OC(=O)NCC3CC3)C2)[nH]n1 [Example 465, (1R,3S)-3-{3-[(1,2-oxazol-5-ylacetyl)amino]-1H-pyrazol-5-yl}cyclopentyl (cyclopropylmethyl)carbamate] |

| Structure (SMILES) | Ki [nM] |
| --- | --- |
| Cc1ccnc(CC(=O)Nc2cc([C@H]3CC[C@@H](OC(=O)NC4(C)CC4)C3)[nH]n2)c1Cl [Example 441, (1R,3S)-3-(3-{[(3-chloro-4-methylpyridin-2-yl)acetyl]amino}-1H-pyrazol-5-yl)cyclopentyl (1-methylcyclopropyl)carbamate] | 1.42 |
| CC1(NC(=O)O[C@@H]2CC[C@H](c3cc(NC(=O)Cc4coc(C5CC5)n4)n[nH]3)C2)CC1 [Example 432, (1R,3S)-3-(3-{[(2-cyclopropyl-1,3-oxazol-4-yl)acetyl]amino}-1H-pyrazol-5-yl)cyclopentyl (1-methylcyclopropyl)carbamate] | 1.25 |
| COc1cc(CC(=O)Nc2cc([C@@H]3CC[C@H](OC(=O)NCC4CCN(C(C)=O)CC4)C3)[nH]n2)ccn1 [Example 581, (1S,3R)-3-(3-{[(2-methoxypyridin-4-yl)acetyl]amino}-1H-pyrazol-5-yl)cyclopentyl[(1-acetylpiperidin-4-yl)methyl]carbamate] | 2.62 |
| Cc1cnc(CC(=O)Nc2cc([C@H]3CC[C@@H](OC(=O)N[C@H](C)C4CC4)C3)[nH]n2)cn1 [Example 471, (1R,3S)-3-(3-{[(5-methylpyrazin-2-yl)acetyl]amino}-1H-pyrazol-5-yl)cyclopentyl [(1R)-1-cyclopropylethyl]carbamate] | 1.43 |
